B1: HuPT3: Prenyltransferase from Helichrysum umbraculigerum, gene SEQ ID NO: 3, expressed in yeast microsomes (protein)
chain: MKSLIIGSFSNKVSCYSPSLPDSSSSLIPTGCYHVSLRTFQRNRAIQAQSSLVRCNIGKFNETLLLSRKRSTKHVACAVSEQPIEPDATNPQSSLPNALDAFYRFSRPHTVIGTALSIVSVSLLAVQKLSDFSPLFFIGVFEAIVAAFFMNIYIVGLNQLSDIEIDKVNKPYLPLASGEYSVQTGIIIVSSFAVMSFWLGWIVGSWPLFWALFISFLLGTAYSINIPMLRWKRFALVAAMCILAVRAIIVQVAFYLHIQTFVYGRLAVFPKPVIFATGFMSFFSVVIALFKDIPDIVGDKIFGIQSFTVRMGQKRVFWICILLLEIAYGVAILVGASSPFLWSRYITVLGHAILGLILWGRAKSTDLESKSAITSFYMFIWQLFYAEYLLIPLVR
B2: HuPT1: Prenyltransferase from Helichrysum umbraculigerum, gene SEQ ID NO: 1, expressed in yeast microsomes (protein)
chain: MELSLSSSSSSSLPQLHTHPSSSSSSSHYIKKSPFFINKFNNHTKCKFHNSSALRTNFFYTTITKTSSSRFVLNKNPNQFSVKACSQVGSAGSDPALNKVADFKDAFWRFLRPHTIRGTALGSVSLVTRALLENPNLIRWSLLLKAFSGLVALICGNGYIVGINQIYDIGIDKVNKPYLPIAAGDLSVQSAWFLVLAFAMVGVIIVGMNFGPFITSLYSLGLFLGTIYSVPPLRMKRFPVVAFLIIATVRGFLLNFGVYYAVRAALGLTFQWSSAVAFITTFVTLFALVIAITKDLPDVEGDRKFQISTFATKLGVRNIALLGSGLLLINYIGSIVAALYMPQAFRSSLMIPLHTILASCLIYQAWILERANYTQEAIAGYYRFVWNLFYSEYIIFPFI
B3: HuPTx: Prenyltransferase from Helichrysum umbraculigerum, gene SEQ ID NO: 7, expressed in yeast microsomes (protein)
chain: MASLAIGSLGSPSSRQCSSPVASSSSFAIGSQIASKFLRISKFDKTKNSPLTLQQKHINKSIDQSFFEPLPLHKINKDKFKLYATSTNNPQFDATHDLKTPEVSIINFVDALYRLIRPYTAVVTIVSVVAMSLLTVNSLSDFSPLFFIKVVQALIGGIFMQMYVSGFNQICDIELDKVNKQSLPLAAGELSMKTAIVIASLSAIMSLSIGWFVGSPPLLWCLVWWFIVGTAYSANVLPYLRWKRFPFTAAFCAMTSRALVLPIGYYLHMQNSIPGVSALLSRPILFAVAMLSAFSLSAMFFKDIPDIKGDRMHGIKSLAIKLGEKRVYWISISIIEIAYIAAAFIGATSPISWSKYVTIIGHLGMGLLLWVRARSVDPTNTVAVQSMYMFLIKLVYAEYGLISLVR

How the values were obtained:
[1] = tested on: Helichrysum umbraculigerum HuPTx (SEQ ID NO: 7), N-terminal plastid targeting sequence removed; test: Steady state kinetic analysis of HuPTx with olivetolic acid and GPP (yeast microsomes, CBGA production); type: biochemical; details: varying olivetolic acid (0.5 μM-1.5 mM), constant GPP (1 mM), pH 8.5, 30° C., 15 min, n=3
Method: (§1) FIG. 4 includes graphs showing steady state kinetic analysis of Helichrysum umbraculigerum PT1 (HuPT1; SEQ ID NO: 1), HuPT3 (SEQ ID NO: 3) and HuPTx (SEQ ID NO: 7) with olivetolic acid and GPP. The Michaelis-Menten Km value of each enzyme was calculated using varying olivetolic acid (0.5 μM-1.5 mM) and constant GPP (1 mM) concentrations (n=3 technically independent samples; measurements were plotted individually).
(§2) HuPT1 (SEQ ID NO: 1), HuPT2 (SEQ ID NO: 2), HuPT3 (SEQ ID NO: 3), HuPTx (SEQ ID NO: 7) genes from H. umbraculigerum and GOT4 gene from Cannabis sativa were separately cloned into pESC-HIS vector. Microsomal preparations from yeast cells transformed with pESC-HIS vectors were performed as described by Jozwiak et al. (2020). PT enzymatic assay was carried out as described previously for CsGOT4 (Luo et al., 2019).
(§3) Microsomes (2 μl) were dissolved in reaction buffer (50 mM Tris-HCl, 10 mM MgCl2, pH 8.5) and substrate was added [0.5 μM-1.5 mM μM olivetolic acid (Cayman Chemicals), 1 mM geranyl pyrophosphate (GPP, Sigma Aldrich)] to a total volume of 50 μl. Samples were incubated for 15 min at 30° C. Samples were extracted with 100 μl […] followed by vortexing and centrifugation. The organic layer was filtered and analyzed via UPLC-qTOF and Triple Quad (TQ) instruments. […]

[2] = tested on: Helichrysum umbraculigerum HuPT3 (SEQ ID NO: 3), N-terminal plastid targeting sequence removed; test: Steady state kinetic analysis of HuPT3 with olivetolic acid and GPP (yeast microsomes, CBGA production); type: biochemical; details: varying olivetolic acid (0.5 μM-1.5 mM), constant GPP (1 mM), pH 8.5, 30° C., 15 min, n=3
Method: as §1, §2, §3

[3] = tested on: Cannabis sativa geranylpyrophosphate:olivetolate geranyltransferase 4 (CsGOT4); details: Luo et al., 2019; cited from earlier work
[4] = tested on: Helichrysum umbraculigerum PT1 (HuPT1; SEQ ID NO: 1), N-terminal plastid targeting sequence removed; test: Steady state kinetic analysis of HuPT1 with olivetolic acid and GPP (yeast microsomes, CBGA production); type: biochemical; details: varying olivetolic acid (0.5 μM-1.5 mM), constant GPP (1 mM), pH 8.5, 30° C., 15 min, n=3
Method: as §1, §2, §3

[5] = In vitro enzymatic assay with PTs: CBGA production by yeast microsomal fractions; type: biochemical; details: purified yeast microsomal fraction expressing the PT; OA and GPP as substrates; LC-MS
From the text: FIG. 2 includes a graph showing in vitro production of cannabigerolic acid (CBGA). Purified microsomal fraction from yeast cells expressing prenyltransferases (PTs) were used in enzyme assay containing olivetolic acid (OA) and geranylpyrophosphate (GPP). Cannabis sativa geranylpyrophosphate:olivetolate geranyltransferase 4 (CsGOT4) enzyme assay was used as positive control in experiment. Extracted ion chromatograms (EICs) are shown. LC-MS was used for assay products analysis. Standard—STD; Negative control—Empty vector.
as §2
The inventors profiled six tissues (young leaf, old leaf, florets and receptacles of flowers, stems, and roots) from H. umbraculigerum, using UPLC-qTOF, and identified CBGA in all the tissues, excluding roots (FIG. 1). CBGA is the known central precursor to Δ^9-tetrahydrocannabinolic acid (THCA), cannabidiolic acid (CBDA) and several other cannabinoids. It is produced from olivetolic acid (OA) and geranyl pyrophosphate (GPP) by an enzymatic reaction catalyzed by geranylpyrophosphate:olivetolate geranyltransferase 4 (GOT4). To identify genes in H. umbraculigerum associated with GOT4 like activity, the inventors searched for candidate prenyltransferase genes in Helichrysum transcriptome. Four prenyltransferase like genes, namely, HuPT1 (SEQ ID NO: 1), HuPT2 (SEQ ID NO: 2), HuPT3 (SEQ ID NO: 3) and HuPTx (SEQ ID NO: 7) were selected for further characterization based on their differential expression profile in leaves compared to other tissues. All these PTs shared less than 40% homology with CsGOT4 that is known to partake in cannabinoid biosynthesis. […]

Row | Molecule | Km [1] [µM] | Km [2] [µM] | Km [3] [µM] | Km [4] [µM] | production of CBGA (PT activity) [5]
1 | CCCCCc1cc(O)cc(O)c1C(=O)O [olivetolic acid] | 2 ± 0.8 | 110 ± 44.3 | 6.7 ± 0.3 | 19 ± 6.3 | –
2 | B1 | – | – | – | – | clear production of CBGA
3 | B2 | – | – | – | – | clear production of CBGA
4 | B3 | – | – | – | – | clear production of CBGA

From patent US20240182873A1, “PRENYLTRANSFERASE AND A […], TISSUE, AND ORGANISM COMPRISING SAME” (YEDA RESEARCH AND DEVELOPMENT CO. LTD., priority 2021, published 2024)
